Measured values published in patent US20250057917A1, “COMPOSITION AND METHODS FOR TREATING RADIATION INDUCED INJURY” (Xequel Bio, Inc., priority 2023, published 2025).
Where two headings read alike, the source gives them in different places. The star is where a group is joined. Biotin = O=C1N[C@H]2[C@H](CS[C@H]2CCCCC(=O)*)N1; Ahx = NCCCCCC(=O)O

Legend:
keratinocyte [1] = conditions: aCT1 treatment, Student's t-test p<0.0018, n=3, FIG. 9B
Description: (§1) Student's t-test, *p<0.0001; n=8; mean±SEM. […] Student's t-test, *p<0.0018; n=3; mean±SEM.

keratinocyte [2] = conditions: aCT1 treatment, Student's t-test p<0.0001, n=8, FIG. 9A
Description: as §1

## {Biotin-Ahx}-RQPKIWFPNRRKPWKKRPRPDDLEI-OH [aCT1]
Keratinocyte [1]
  keratinocyte migration: an increase in keratinocyte migration
Keratinocyte [1]; listed as aCT1 peptide
  keratinocyte migration: accelerated keratinocyte migration and proliferation
Keratinocyte [2]
  keratinocyte proliferation: an increase in keratinocyte proliferation
Keratinocyte [2]; listed as aCT1 peptide
  keratinocyte proliferation: accelerated keratinocyte migration and proliferation
